Patent US7348425B2, “Inhibitors of HCV replication” (Bristol-Myers Squibb Company, priority 2004, dated 2008)
pEC50, pIC50: −log10 of the molar value. Where two headings read alike, the source gives them in different places.

What was measured:
[1] = biological target: T1, HCV NS5B RdRp genotype 1b (Hepatitis C virus genotype 1b, UniProt Q9WMX2); assay: Modified HCV NS5B RdRp enzyme assay (with preincubation); assay type: biochemical; conditions: modified method (with preincubation)
T1 construct: The protein was expressed with an 18 amino acid C-terminal truncation to enhance the solubility; made in house; host or cells: E. coli BL21 (DE3), pET21a
Summary of the method: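 C-terminally truncated (Δ18) genotype 1b NS5B from E. coli was preincubated (14 nM) with compound, then reaction started with polyA template (0.2 nM), ³H-UTP (0.29 μM) and dT12 primer (20 nM) precaptured on SPA beads. Reaction ran 4 h at 30 °C in pH 7.5 Hepes buffer with 2% DMSO. IC50 came from seven concentrations.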

HCV replicon = HCV replicon FRET assay; assay type: cell-based; conditions: Hepatitis C virus
Summary of the method: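 Replicon cells (± Renilla luciferase reporter) incubated with titrated compound at 37 °C; NS3 protease activity read by FRET peptide cleavage (20 uM EDANS/DABCYL substrate, 340/490 nm kinetic) or luciferase.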

T1 sequence (Q9WMX2 2420-2992): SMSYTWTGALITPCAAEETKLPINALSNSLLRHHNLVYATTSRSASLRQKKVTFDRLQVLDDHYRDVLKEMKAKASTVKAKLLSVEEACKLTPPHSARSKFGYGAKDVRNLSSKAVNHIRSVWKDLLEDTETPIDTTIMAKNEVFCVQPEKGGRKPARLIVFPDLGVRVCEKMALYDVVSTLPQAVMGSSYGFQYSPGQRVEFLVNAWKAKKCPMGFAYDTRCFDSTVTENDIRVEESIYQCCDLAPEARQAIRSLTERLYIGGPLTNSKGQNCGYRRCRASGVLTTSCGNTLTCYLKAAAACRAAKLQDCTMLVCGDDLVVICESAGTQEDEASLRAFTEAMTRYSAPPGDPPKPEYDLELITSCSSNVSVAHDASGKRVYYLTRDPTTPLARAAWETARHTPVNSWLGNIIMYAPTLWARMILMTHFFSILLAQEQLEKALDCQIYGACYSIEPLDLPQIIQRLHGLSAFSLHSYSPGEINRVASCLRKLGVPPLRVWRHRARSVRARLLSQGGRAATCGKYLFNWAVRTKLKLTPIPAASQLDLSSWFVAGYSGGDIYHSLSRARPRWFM

SMILES | pIC50 [1] | pEC50 (HCV replicon; FRET assay, read-out: EC50) | pEC50 (HCV replicon)
CN(C)S(=O)(=O)NC(=O)c1ccc2c(C3CCCCC3)c3n(c2c1)CC(=O)Nc1ccccc1-3 | 6.00 to 7.70 | 6.00 to 8.00 | –
CCOC(=O)/C=C/c1ccc(NC(=O)C2(NC(=O)c3ccc4c(C5CCCCC5)c5n(c4c3)CCCc3cc(O)ccc3-5)CCCC2)cc1 | < 6.00 | 6.00 to 8.00 | –
O=C(O)c1ccc2c(C3CCCCC3)c3n(c2c1)CC(N1CCOCC1)Cc1ccccc1-3 (centres unmarked) | 6.00 to 7.70 | 6.00 to 8.00 | –
COC(=O)c1ccc2c(C3CCCCC3)c3n(c2c1)CC(C(=O)O)=Cc1cc(OC)ccc1-3 | 6.00 to 7.70 | 5.00 to 6.00 | –
COC(=O)c1ccc2c(C3CCCCC3)c3n(c2c1)CC(C(=O)N1CCOCC1)=Cc1cc(OC)ccc1-3 | 6.00 to 7.70 | 6.00 to 8.00 | –
COc1ccc2c(c1)C=C(C(=O)N1CCOCC1)Cn1c-2c(C2CCCCC2)c2ccc(C(=O)O)cc21 | 6.00 to 7.70 | 6.00 to 8.00 | –
CN(C)S(=O)(=O)NC(=O)c1ccc2c(C3CCCCC3)c3n(c2c1)CC(C(=O)N1CCOCC1)Cc1cccnc1-3 (centres unmarked) | 6.00 to 7.70 | 6.00 to 8.00 | –
O=C(O)c1ccc2c(C3CCCCC3)c3n(c2c1)CC(C(=O)N1CCOCC1)=Cc1ccncc1-3 | 6.00 to 7.70 | 5.00 to 6.00 | –
O=C(O)c1ccc2c(C3CCCCC3)c3n(c2c1)C=C(C(=O)N1CCOCC1)Cc1ccncc1-3 | < 6.00 | < 5.00 | –
COc1ccc2c(c1)C=C(C(=O)N1CCOCC1)Cn1c-2c(C2CCCCC2)c2ccc(C(=O)NS(=O)(=O)N(C)C)cc21 | 6.00 to 7.70 | – | 6.00 to 8.00
CC(C)S(=O)(=O)NC(=O)c1ccc2c(C3CCCCC3)c3n(c2c1)CC(C(=O)N1CCOCC1)=Cc1ccccc1-3 | 6.00 to 7.70 | 6.00 to 8.00 | –
CCS(=O)(=O)NC(=O)c1ccc2c(C3CCCCC3)c3n(c2c1)CC(C(=O)N1CCOCC1)=Cc1ccccc1-3 | 6.00 to 7.70 | 6.00 to 8.00 | –
O=C(NS(=O)(=O)N1CCCC1)c1ccc2c(C3CCCCC3)c3n(c2c1)CC(C(=O)N1CCOCC1)=Cc1ccccc1-3 | 6.00 to 7.70 | 6.00 to 8.00 | –
CC(C)(C)S(=O)(=O)NC(=O)c1ccc2c(C3CCCCC3)c3n(c2c1)CC(C(=O)N1CCOCC1)=Cc1ccccc1-3 | 6.00 to 7.70 | 6.00 to 8.00 | –
CCS(=O)(=O)NC(=O)c1ccc2c(C3CCCCC3)c3n(c2c1)CC(C(=O)N1CCOCC1)Cc1ccccc1-3 (centres unmarked) | 6.00 to 7.70 | 6.00 to 8.00 | –
CC(C)S(=O)(=O)NC(=O)c1ccc2c(C3CCCCC3)c3n(c2c1)CC(C(=O)N1CCOCC1)Cc1ccccc1-3 (centres unmarked) | 6.00 to 7.70 | 6.00 to 8.00 | –

SMILES | pIC50 [1] | pEC50 (HCV replicon; FRET assay, read-out: EC50) | pEC50 (HCV replicon)
COc1ccc2c(c1)CC(C(=O)N1CCOCC1)Cn1c-2c(C2CCCCC2)c2ccc(C(=O)O)cc21 (centres unmarked) | 6.00 to 7.70 | 6.00 to 8.00 | –
O=C(NS(=O)(=O)c1ccccc1)c1ccc2c(C3CCCCC3)c3n(c2c1)CC(C(=O)N1CCOCC1)Cc1ccccc1-3 (centres unmarked) | 6.00 to 7.70 | 6.00 to 8.00 | –
COC(=O)C1=Cc2ccccc2-c2c(C3CCCCC3)c3ccc(C(=O)NS(=O)(=O)N(C)C)cc3n2C1 | 6.00 to 7.70 | 6.00 to 8.00 | –
COC(=O)c1ccc2c(C3CCCCC3)c3n(c2c1)CC(C(=O)N1CCCOCC1)=Cc1ccccc1-3 | < 6.00 | 5.00 to 6.00 | –
O=C(O)c1ccc2c(C3CCCCC3)c3n(c2c1)CC(C(=O)N1CCCOCC1)=Cc1ccccc1-3 | 6.00 to 7.70 | 6.00 to 8.00 | –
CN(C)S(=O)(=O)NC(=O)c1ccc2c(C3CCCCC3)c3n(c2c1)CC(C(=O)O)=Cc1ccccc1-3 | 6.00 to 7.70 | < 5.00 | –
O=C(O)/C=C/c1ccc(NC(=O)C2(NC(=O)c3ccc4c(C5CCCCC5)c5n(c4c3)CCNc3ccccc3-5)CCCC2)cc1 | 6.00 to 7.70 | 6.00 to 8.00 | –
O=C(O)c1ccc2c(C3CCCCC3)c3n(c2c1)CNc1ccccc1-3 | 6.00 to 7.70 | 6.00 to 8.00 | –
COC(=O)c1ccc2c(C3CCCCC3)c3n(c2c1)CNc1ccccc1-3 | < 6.00 | 6.00 to 8.00 | –
COC(=O)c1ccc2c(C3CCCCC3)c3n(c2c1)CCNc1ccccc1-3 | < 6.00 | 6.00 to 8.00 | –
COC(=O)c1ccc2c(C3CCCCC3)c3n(c2c1)CC(C(=O)N1CCOCC1)Cc1ccncc1-3 (centres unmarked) | < 6.00 | 6.00 to 8.00 | –
O=C(O)c1ccc2c(C3CCCCC3)c3n(c2c1)CC(C(=O)N1CCOCC1)Cc1ccncc1-3 (centres unmarked) | 6.00 to 7.70 | 6.00 to 8.00 | –
CCN(C)S(=O)(=O)NC(=O)c1ccc2c(C3CCCCC3)c3n(c2c1)CC(C(=O)N1CCOCC1)=Cc1ccccc1-3 | 6.00 to 7.70 | 6.00 to 8.00 | –
CCN(CC)S(=O)(=O)NC(=O)c1ccc2c(C3CCCCC3)c3n(c2c1)CC(C(=O)N1CCOCC1)=Cc1ccccc1-3 | 6.00 to 7.70 | 6.00 to 8.00 | –
CC(C)NS(=O)(=O)NC(=O)c1ccc2c(C3CCCCC3)c3n(c2c1)CC(C(=O)N1CCOCC1)=Cc1ccccc1-3 | 6.00 to 7.70 | 6.00 to 8.00 | –
